US20090280062A1, “LONGEVITY-PROMOTING EFFECTS OF ACETIC ACID AND REISHI POLYSACCHARIDE” (priority 2008, published 2009)

Columns and labels:
[1] = test system: DAF-16; assay: Semi-quantitative RT-PCR of DAF-16 transcripts in C. elegans; format: in vivo; settings: day 2 after treatment; acetic acid 50 ppm, extracts 100 ppm; normalised to ACT-1
Procedure: (§1) RNA preparation and reverse transcriptase-PCR(RT-PCR). Total RNA from batches of C. elegans were isolated from samples in the NGM medium at appropriate time intervals using an RNeasy mini kit (Qiagen). Subsequently, RNA (500 ng) from each sample was reverse-transcribed and PCR was performed using a Superscript One-step RT-PCR kit (Invitrogen). […] PCR products were run on 1.8% agarose gel and stained with 0.4 μg/ml ethidium bromide. Stained bands were visualized under UV light and photographed with a camera (Nikon […]).

[2] = test system: wild-type C. elegans (N2); assay: Lifespan analysis of C. elegans after treatment with test substances; format: in vivo; settings: acetic acid and vitamins 50 ppm, RF3 and mushroom polysaccharide fractions 100 ppm (FIG. 1); 20° C.; versus water control
Description: Strains, bacteria, natural products and chemicals. The wild-type N2 strain of C. elegans were used in all experiments. The worms were maintained and cultured on nematode growth medium (NGM) agar plates or in liquid medium with E. coli OP50 as a food source. […] Contaminating food and worm debris were removed by sucrose floatation. In addition to OP50, two E. coli strains for RNAi were used (III-1N20 for TIR-1 RNAi and I-5M24 for DAF-16 RNAi). RF3, crude mycelium-powders of A. camphorate and H. erinaceus were prepared as described in previous papers. Each solution was diluted with deionized water to make test solutions of desired concentrations for various assays. Lifespan analysis after treatment with various substances.

[3] = test system: RAB-1 and PMK-1 (MAPK pathway); assay: RT-PCR of RAB-1 and PMK-1 transcripts (MAPK pathway) in C. elegans; settings: in vivo transcription after treatment; RF3 100 ppm, 2 days
Procedure: as §1

Compound: CC(=O)O [Acetic acid, acetic acid]
- DAF-16 expression [1]: significant increase
- lifespan-extending effect on C. elegans [2]: showed lifespan-extending effect
- MAPK pathway activation (RAB-1 and PMK-1 transcription levels) [3]: apparently not involved
